Data as given in ChEMBL document CHEMBL1201862, “PubChem BioAssay data set” (2004).
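In this assay, cells in 96-well plates receive the compound at five concentrations for 48 hours. Endpoints are linearly interpolated between the surrounding concentrations. Abbreviation: GI50, concentration required for 50% inhibition of growth.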 Calls of active or inactive are those of the source. No stated cut-off is given here; in the data, active = GI50 up to about 1.1 µM and inactive = higher.

How the values were obtained:
Experiment in all cases: DTP human tumour cell line panel, 48 h
HCT-15 = system: HCT-15
HCT-116 = system: HCT-116
SK-MEL-2 = system: SK-MEL-2
SF-539 = system: SF-539
IGROV-1 = system: IGROV-1
SNB-78 = system: SNB-78
Malme-3M = system: Malme-3M
DLD-1 = system: DLD-1
SNB-19 = system: SNB-19
CAKI-1 = system: CAKI-1
CCRF-CEM = system: CCRF-CEM
HT-29 = system: HT-29
SW-620 = system: SW-620
DMS-114 = system: DMS-114
SK-OV-3 = system: SK-OV-3
A498 = system: A498
COLO 205 = system: COLO 205
U-251 = system: U-251
RPMI-8226 = system: RPMI-8226
M14 = system: M14

Row | Compound | GI50 (HCT-15) [µM] | GI50 (HCT-116) | GI50 (SK-MEL-2) | GI50 (SF-539) | GI50 (IGROV-1) | GI50 (SNB-78) | GI50 (Malme-3M) | GI50 (DLD-1) | GI50 (SNB-19) | GI50 (CAKI-1) | GI50 (CCRF-CEM) | GI50 (HT-29) | GI50 (SW-620) | GI50 (DMS-114) | GI50 (SK-OV-3) | GI50 (A498) | GI50 (COLO 205) | GI50 (U-251) | GI50 (RPMI-8226) | GI50 (M14)
1 | CC(=O)OC1C=C(C=O)C(O)(C=O)C2(C)CCCC(C)(C)C12 (stereo not drawn) | 0.6 | 0.989 µM (active) | 2.86 µM (inactive) | 2.4 µM (inactive) | 2.49 µM (inactive) | 2.67 µM (inactive) | 0.971 µM (active) | 1.05 µM (active) | 5.6 µM (inactive) | 1 µM (active) | 0.238 µM (active) | 1.39 µM (inactive) | 0.485 µM (active) | 0.927 µM (active) | 4.34 µM (inactive) | 1.28 µM (inactive) | 0.859 µM (active) | 3.8 µM (inactive) | 0.519 µM (active) | 
2 | CC(C)=CCc1c(O)ccc2ccc(=O)oc12 [OSTHENOL] | 60.1 | 57.4 µM (inactive) | 45.7 µM (inactive) | 24 µM (inactive) | > 68.5 µM (inactive) | 32 µM (inactive) | 38.2 µM (inactive) | > 100 µM (inactive) | > 51.9 µM (inactive) | > 61.5 µM (inactive) | 33.9 µM (inactive) | > 100 µM (inactive) | > 100 µM (inactive) | 27.9 µM (inactive) | > 100 µM (inactive) | 54.8 µM (inactive) | > 100 µM (inactive) | 21.9 µM (inactive) | 26.7 µM (inactive) | 
3 | COC(=O)[C@@H](O)[C@](O)(CCC(C)C)C(=O)O[C@@H]1C(OC)=C[C@]23CCCN2CCc2cc4c(cc2[C@H]13)OCO4 | 1.68 | 0.407 µM (active) | 2.19 µM (inactive) | 0.673 µM (active) | 1.07 µM (active) | 2.59 µM (inactive) | 0.459 µM (active) | 1 µM (active) | 0.373 µM (active) | 1.77 µM (inactive) | 1.51 µM (inactive) | 0.891 µM (active) | 2.21 µM (inactive) | 0.265 µM (active) | 1.17 µM (inactive) | 1.48 µM (inactive) | 1.29 µM (inactive) | 0.869 µM (active) | 1.34 µM (inactive) | 
4 | COc1ccc(C2C(=O)C(Cl)N2Nc2nc(C)cc(O)n2)cc1OC (stereo not drawn) | 20.2 | 36.3 µM (inactive) | 22.6 µM (inactive) | 24 µM (inactive) | 10.9 µM (inactive) | 21.1 µM (inactive) |  |  | 40.5 µM (inactive) |  | 5.58 µM (inactive) | 46.1 µM (inactive) | 45.3 µM (inactive) |  |  |  | 51.2 µM (inactive) | 26.2 µM (inactive) | 19.1 µM (inactive) | 25.8 µM (inactive)
5 | CCCOC(=O)CNC(=O)OC(C)(C)C | > 100 | > 100 µM (inactive) | > 100 µM (inactive) | > 100 µM (inactive) | > 100 µM (inactive) | > 100 µM (inactive) | > 100 µM (inactive) | > 100 µM (inactive) | > 100 µM (inactive) | > 100 µM (inactive) | > 100 µM (inactive) | > 100 µM (inactive) | > 100 µM (inactive) | > 100 µM (inactive) | > 100 µM (inactive) |  | > 100 µM (inactive) | > 100 µM (inactive) |  | > 100 µM (inactive)
6 | CCCCCCCCC1=CCC(CN(C)C)C1=O (stereo not drawn) | 17.8 | 19.4 µM (inactive) | 21.3 µM (inactive) | 19.7 µM (inactive) | 19.4 µM (inactive) | 23.8 µM (inactive) | 17.8 µM (inactive) | 18.8 µM (inactive) | > 55.2 µM (inactive) |  | 10.6 µM (inactive) | 19.4 µM (inactive) | 19.9 µM (inactive) | 18.7 µM (inactive) | > 100 µM (inactive) | > 43.9 µM (inactive) | 18.8 µM (inactive) | 18.1 µM (inactive) | 1.34 µM (inactive) | 
7 | NC(=O)C(=O)N/N=C1/c2ccccc2CC1C1(O)C(=O)Nc2c(Cl)cc(Cl)cc21 (stereo not drawn) | > 100 | > 100 µM (inactive) | > 100 µM (inactive) | > 100 µM (inactive) | > 100 µM (inactive) | > 100 µM (inactive) | > 100 µM (inactive) | > 100 µM (inactive) | > 100 µM (inactive) | 81.8 µM (inactive) | 61.5 µM (inactive) | > 100 µM (inactive) | > 100 µM (inactive) | > 100 µM (inactive) | > 100 µM (inactive) | > 100 µM (inactive) | > 100 µM (inactive) | > 100 µM (inactive) | > 100 µM (inactive) | 
8 | Cc1cc2cccc(Cl)c2nc1C(=O)c1ccccc1 | > 100 | > 100 µM (inactive) | > 100 µM (inactive) | > 100 µM (inactive) | > 100 µM (inactive) | > 100 µM (inactive) | 50.5 µM (inactive) | > 100 µM (inactive) | 70.3 µM (inactive) | > 100 µM (inactive) |  |  | > 100 µM (inactive) | > 100 µM (inactive) |  |  | > 100 µM (inactive) | > 100 µM (inactive) | > 100 µM (inactive) | 76.2 µM (inactive)
9 | Cn1ncc2c(=O)[nH]c(-c3ccccc3)nc21 | > 100 |  | > 100 µM (inactive) | > 100 µM (inactive) | > 100 µM (inactive) | > 100 µM (inactive) | > 100 µM (inactive) | > 100 µM (inactive) | > 100 µM (inactive) | > 100 µM (inactive) | > 100 µM (inactive) | > 100 µM (inactive) | > 100 µM (inactive) | > 100 µM (inactive) | > 100 µM (inactive) |  | > 100 µM (inactive) | > 100 µM (inactive) | > 100 µM (inactive) | > 100 µM (inactive)
10 | CCOC(=O)C1C(c2cc(OC)c(O)c(OC)c2)c2cc3c(cc2OC1(C)O)OCO3 (stereo not drawn) | 46.6 | 47.3 µM (inactive) | > 100 µM (inactive) | > 100 µM (inactive) | > 100 µM (inactive) | 81.7 µM (inactive) | > 100 µM (inactive) | 42.6 µM (inactive) | > 100 µM (inactive) | 26 µM (inactive) | > 100 µM (inactive) | 41.1 µM (inactive) | 42.9 µM (inactive) |  | > 100 µM (inactive) |  | > 100 µM (inactive) | 78.9 µM (inactive) | 71.1 µM (inactive) | 74.3 µM (inactive)
11 | CC(C)C1=CC2=CC[C@@H]3[C@](C)(CCC[C@@]3(C)C(=O)O)[C@H]2CC1 [ABIETIC ACID] | 43.4 | 45.1 µM (inactive) | > 50.9 µM (inactive) | > 70.8 µM (inactive) | 57.5 µM (inactive) | 59.7 µM (inactive) | > 67 µM (inactive) | > 67.9 µM (inactive) | > 67.1 µM (inactive) | 36.2 µM (inactive) | 42.9 µM (inactive) | 30.1 µM (inactive) | 45.8 µM (inactive) | 58.9 µM (inactive) | > 81.7 µM (inactive) | 49.8 µM (inactive) | 40.3 µM (inactive) | 50.1 µM (inactive) | > 46.6 µM (inactive) | 67.9 µM (inactive)
